Test results reported in patent publication US20110230476A1, “PI3 KINASE INHIBITORS AND USES THEREOF” (AVILA THERAPEUTICS, INC., priority 2009, published 2011).
“Also recorded” adds a separate entry of the source.

Experiments:
PI3Kα (p110α/p85α) = biological target: T1, PI3Kα (p110α/p85α) (Homo sapiens, UniProt P42336); experiment: HTRF assay, potency against active PI3Kα; type: biochemical; conditions: for IC50: HTRF, [ATP]=50 μM, [di-C8-PIP2]=10 μM, 30 min pre-incubation, read-out: PI3Kα Inhibition
T1 construct: purchased BPS Bioscience (San Diego, Calif.) or Millipore (Billerica, Mass.)
In short: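 Active p110/p85α lipid kinase reactions were started with ATP and run 30-60 minutes at 25 °C, then stopped and developed with HTRF detection mix. HTRF ratio converted to % inhibition against ±enzyme controls; IC50 from log[inhibitor] vs response, variable slope.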

PI3Kγ (p120γ) = biological target: T2, PI3Kγ (p120γ) (Homo sapiens, UniProt P48736); experiment: HTRF assay, potency against active PI3Kγ; type: biochemical; conditions: [ATP]=50 μM, [di-C8-PIP2]=10 μM, 30 min pre-incubation, read-out: PI3Kγ Inhibition
T2 construct: purchased BPS Bioscience (San Diego, Calif.) or Millipore (Billerica, Mass.)
In short: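 End-point competition HTRF: enzyme (p110β/p85α 0.75 nM; p120γ 2-2.5 nM) with 10 μM di-C8-PIP2 pre-incubated 30 min at 25° C with compound, then 50 μM ATP added for 30-60 min at 25° C. Stopped, detected after 1 and 18 h; IC50 from variable-slope fit.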

PI3K = PI3K HCT116 cellular assay (Western blot); type: cell-based; conditions: Homo sapiens, HCT-116, HCT116 colon cancer cells, 1 hour incubation, read-out: PI3K Inhibition
Description: PI3K HCT116 Cellular Assay
Selected compounds were assayed in HCT116 colon cancer cells. […] Cells were then washed with PBS, lysed and the protein lysates were then recovered and analyzed by Western blot.

PI3Kα [1] = biological target: T3, PI3Kα (Homo sapiens, UniProt P42336); experiment: Mass spectrometry of intact PI3Kα (Johns Hopkins), 3 hr incubation; type: binding; parameters: Johns Hopkins; conditions: 10× fold excess of compound, MALDI
Description: (§1) Mass Spectrometry for PI3K
Intact PI3Kα (Johns Hopkins) was incubated for 3 hr at a 10× fold excess of II-a-45 or II-a-49 to protein. Aliquots (3 μL) of the samples were diluted with 10 μL of 0.1% TFA prior to micro C4 ZipTipping directly onto the MALDI target using Sinapinic acid as the desorption matrix (10 mg/ml in 0.1% TFA:Acetonitrile 50:50).
Target sequence in this assay (P42336 whole entry): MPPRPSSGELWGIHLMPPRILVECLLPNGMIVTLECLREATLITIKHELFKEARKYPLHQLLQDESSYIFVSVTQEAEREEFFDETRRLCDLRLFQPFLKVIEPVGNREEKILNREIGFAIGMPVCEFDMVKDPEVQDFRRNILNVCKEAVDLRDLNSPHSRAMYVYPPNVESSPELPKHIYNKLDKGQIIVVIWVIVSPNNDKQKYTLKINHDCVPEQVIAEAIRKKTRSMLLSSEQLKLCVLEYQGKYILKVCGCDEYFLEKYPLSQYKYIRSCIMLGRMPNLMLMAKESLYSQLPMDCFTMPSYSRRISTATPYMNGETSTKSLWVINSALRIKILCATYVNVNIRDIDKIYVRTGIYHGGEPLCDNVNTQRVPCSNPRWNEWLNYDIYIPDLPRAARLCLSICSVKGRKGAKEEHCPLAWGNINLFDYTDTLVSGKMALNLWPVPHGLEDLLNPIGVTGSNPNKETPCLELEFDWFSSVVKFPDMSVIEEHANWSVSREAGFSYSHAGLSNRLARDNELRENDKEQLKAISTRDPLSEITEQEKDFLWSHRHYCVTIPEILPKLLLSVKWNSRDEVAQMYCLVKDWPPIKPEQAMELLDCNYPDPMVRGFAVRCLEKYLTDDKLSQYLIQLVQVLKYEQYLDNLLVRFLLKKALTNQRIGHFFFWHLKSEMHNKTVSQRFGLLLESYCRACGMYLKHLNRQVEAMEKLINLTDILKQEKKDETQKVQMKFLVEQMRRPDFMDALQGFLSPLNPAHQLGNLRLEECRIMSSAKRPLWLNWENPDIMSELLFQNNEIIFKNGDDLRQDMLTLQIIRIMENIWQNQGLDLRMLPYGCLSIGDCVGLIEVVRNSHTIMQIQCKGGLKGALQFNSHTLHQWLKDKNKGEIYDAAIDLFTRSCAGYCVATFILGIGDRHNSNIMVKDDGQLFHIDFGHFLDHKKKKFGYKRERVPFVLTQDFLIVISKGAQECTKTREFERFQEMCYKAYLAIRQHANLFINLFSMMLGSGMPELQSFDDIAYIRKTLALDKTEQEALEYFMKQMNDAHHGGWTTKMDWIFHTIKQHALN
Target sequence in this assay (P27986 322-600 partner limits assumed): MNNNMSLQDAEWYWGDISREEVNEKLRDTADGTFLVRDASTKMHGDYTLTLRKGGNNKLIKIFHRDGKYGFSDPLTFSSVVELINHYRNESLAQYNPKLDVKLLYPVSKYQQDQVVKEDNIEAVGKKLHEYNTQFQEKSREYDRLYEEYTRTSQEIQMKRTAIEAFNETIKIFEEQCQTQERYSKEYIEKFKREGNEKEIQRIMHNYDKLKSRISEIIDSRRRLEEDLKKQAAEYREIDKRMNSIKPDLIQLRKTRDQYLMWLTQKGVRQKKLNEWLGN

Phospho-Akt(Ser473) [2] = experiment: Dose response in SKOV3 cells as determined by in-cell Western; type: cell-based; conditions: Homo sapiens, SK-OV-3; SKOV3 cells, 1 hr; read-out: pAKT Inhibition in cell Western
In short: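 SKOV3 cells treated with compound for 1 hr, then formaldehyde-fixed, permeabilised and stained overnight for phospho-Akt(Ser473) with anti-tubulin as a reference. Infrared secondary antibodies read at 680 and 800 nm channels by in-cell Western imaging.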

PI3Kα [3] = biological target: T3, PI3Kα; experiment: Mass spectrometry of intact PI3Kα (Millipore, 14-602), 1 hr incubation; type: binding; parameters: purchased Millipore 14-602; conditions: 10× fold excess of compound, MALDI
Description: as §1
Target sequence in this assay (P42336 whole entry): as the sequence (P42336 whole entry) above
Target sequence in this assay (P27986 whole entry partner): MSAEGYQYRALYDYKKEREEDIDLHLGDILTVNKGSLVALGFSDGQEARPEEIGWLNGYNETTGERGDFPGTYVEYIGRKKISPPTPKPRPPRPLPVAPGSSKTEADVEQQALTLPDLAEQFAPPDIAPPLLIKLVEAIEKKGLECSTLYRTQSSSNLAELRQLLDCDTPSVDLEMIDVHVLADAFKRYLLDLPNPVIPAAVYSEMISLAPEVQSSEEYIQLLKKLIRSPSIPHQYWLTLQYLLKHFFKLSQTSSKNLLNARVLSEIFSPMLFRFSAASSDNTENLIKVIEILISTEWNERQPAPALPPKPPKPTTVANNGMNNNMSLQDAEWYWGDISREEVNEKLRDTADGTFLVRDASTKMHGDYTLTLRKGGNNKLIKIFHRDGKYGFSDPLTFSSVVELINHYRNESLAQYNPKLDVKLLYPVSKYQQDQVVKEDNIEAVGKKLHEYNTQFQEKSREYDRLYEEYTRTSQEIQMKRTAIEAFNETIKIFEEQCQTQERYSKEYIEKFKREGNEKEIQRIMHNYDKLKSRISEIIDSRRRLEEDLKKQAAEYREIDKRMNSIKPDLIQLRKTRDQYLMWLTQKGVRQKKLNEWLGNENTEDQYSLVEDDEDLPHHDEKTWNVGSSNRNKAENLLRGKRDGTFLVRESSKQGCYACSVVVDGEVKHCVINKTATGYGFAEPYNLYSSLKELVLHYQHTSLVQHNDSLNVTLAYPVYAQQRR
Aliquots (5 μl) of the samples were diluted with 15 μl of 0.2% TFA prior to micro C4 ZipTipping directly onto the MALDI target using Sinapinic acid as the desorption matrix (10 mg/ml in 0.1% TFA:Acetonitrile 50:50).

PI3Kβ (p110β/p85α) = biological target: T4, PI3Kβ (p110β/p85α) (Homo sapiens, UniProt P42338); experiment: HTRF assay, potency against active PI3Kβ; type: biochemical; conditions: [ATP]=50 μM, [di-C8-PIP2]=10 μM, 30 min pre-incubation, read-out: PI3Kβ Inhibition
T4 construct: purchased BPS Bioscience (San Diego, Calif.) or Millipore (Billerica, Mass.)
Description: Homogeneous Time Resolved Fluorescence (HTRF) Assay Protocol for Potency Assessment Against the Active Forms of PI3Kα, PI3Kβ, and PI3Kγ
The mechanics of the assay platform are best described by the vendor (Millipore, Billerica, Mass.) on their website at the following URL: www.millipore.com/coa/tech1/74jt4z.
Briefly, Stop solution (Stop A, #33-007 and Stop B, #33-009; 3:1 ratio) and Detection Mix (from DMC, #33-015 with DMA, #33-011 and DMB, #33-013; 18:1:1 ratio) were prepared as recommended by the manufacturer about 2 hrs prior to use. […] Lipid kinase reactions were started with the addition of 5 μL of ATP solution, mixed for 15 sec on a rotary plate shaker and incubated for 30-60 minutes at 25° C. Next, reactions were stopped with a 5 μL addition of Stop solution immediately followed by a 5 μL volume of Detection Mix. […] At the conclusion of each assay, the HTRF ratio from fluorescence emission values for each well was calculated and % Inhibition determined from averaged controls wells (+/−PI3K enzyme). % Inhibition values for each compound were then plotted against inhibitor concentration to estimate IC50 from log [Inhibitor] vs Response, Variable Slope model in GraphPad Prism from GraphPad Software (San Diego, Calif.).

Phospho-Akt(Ser473) [4] = experiment: Dose response in SKOV3 cells as determined by Western blot; type: cell-based; conditions: Homo sapiens, SK-OV-3, 1 hr, Phospho-Akt normalized to total Akt, read-out: Immunoblot
Description: Dose Response in SKOV3 Cells as Determined by Western Blot
SKOV3 cells were plated in SKOV3 Growth Media (DMEM supplemented with 10% FBS and pen/strep) at a density of 4×10^5 cells per well of 12 well plates. Twenty four hours later the media was removed and replaced with 1 ml media containing test compound and 0.1% DMSO and cells were returned to the incubator for 1 hr. At the end of the hour, the media was removed and the cells were washed with PBS, then lysed and scraped into 30 ul of Cell Extraction Buffer (Biosource, Camarillo, Calif.) plus Complete Protease Inhibitor and PhosStop Phosphatase Inhibitor (Roche, Indianapolis, Ind.).
Cell debris was spun down at 13,000×g for 1 minute and the supernatant was taken as the cell lysate. Protein concentration of the lysate was determined by BCA Assay (Pierce Biotechnology, Rockford, Ill.) and 50 ug of protein was loaded per well onto a NuPAGE Novex 4-12% Bis-Tris gel (Invitrogen, Carlsbad, Calif.) then transferred to Immobilon PVDF-FL (Millipore, Billerica, Mass.).
The blot was blocked in Odyssey Blocking Buffer (Li-Cor Biosciences, Lincoln, Nebr.) for 1 hr then incubated overnight at 4° C. with mouse anti-Akt (#2920) and rabbit anti-Phospho-Akt(Ser473) (#9271)(Cell Signaling Technology, Boston, Mass.) antibodies, both diluted 1:1000 in PBS/Odyssey Buffer (1:1)+0.1% Tween-20. The blots were washed 3 times 5 minutes in PBS+0.2% Tween-20 then incubated for 1 hr at room temperature with fluorescently labeled secondary antibodies (Li-Cor) diluted 1:10000 in PBS/Odyssey Buffer (1:1)+0.1% Tween-20.
The blots were washed 2 times for 5 minutes in PBS+0.2% Tween-20, once in distilled water, then scanned on an Odyssey machine (Li-Cor). Band intensity was determined using the Odyssey software and Phopho-Akt signal was normalized to total Akt within samples, then expressed as a percentage of the untreated Phospho-Akt signal.

T4 sequence (P42338 whole entry): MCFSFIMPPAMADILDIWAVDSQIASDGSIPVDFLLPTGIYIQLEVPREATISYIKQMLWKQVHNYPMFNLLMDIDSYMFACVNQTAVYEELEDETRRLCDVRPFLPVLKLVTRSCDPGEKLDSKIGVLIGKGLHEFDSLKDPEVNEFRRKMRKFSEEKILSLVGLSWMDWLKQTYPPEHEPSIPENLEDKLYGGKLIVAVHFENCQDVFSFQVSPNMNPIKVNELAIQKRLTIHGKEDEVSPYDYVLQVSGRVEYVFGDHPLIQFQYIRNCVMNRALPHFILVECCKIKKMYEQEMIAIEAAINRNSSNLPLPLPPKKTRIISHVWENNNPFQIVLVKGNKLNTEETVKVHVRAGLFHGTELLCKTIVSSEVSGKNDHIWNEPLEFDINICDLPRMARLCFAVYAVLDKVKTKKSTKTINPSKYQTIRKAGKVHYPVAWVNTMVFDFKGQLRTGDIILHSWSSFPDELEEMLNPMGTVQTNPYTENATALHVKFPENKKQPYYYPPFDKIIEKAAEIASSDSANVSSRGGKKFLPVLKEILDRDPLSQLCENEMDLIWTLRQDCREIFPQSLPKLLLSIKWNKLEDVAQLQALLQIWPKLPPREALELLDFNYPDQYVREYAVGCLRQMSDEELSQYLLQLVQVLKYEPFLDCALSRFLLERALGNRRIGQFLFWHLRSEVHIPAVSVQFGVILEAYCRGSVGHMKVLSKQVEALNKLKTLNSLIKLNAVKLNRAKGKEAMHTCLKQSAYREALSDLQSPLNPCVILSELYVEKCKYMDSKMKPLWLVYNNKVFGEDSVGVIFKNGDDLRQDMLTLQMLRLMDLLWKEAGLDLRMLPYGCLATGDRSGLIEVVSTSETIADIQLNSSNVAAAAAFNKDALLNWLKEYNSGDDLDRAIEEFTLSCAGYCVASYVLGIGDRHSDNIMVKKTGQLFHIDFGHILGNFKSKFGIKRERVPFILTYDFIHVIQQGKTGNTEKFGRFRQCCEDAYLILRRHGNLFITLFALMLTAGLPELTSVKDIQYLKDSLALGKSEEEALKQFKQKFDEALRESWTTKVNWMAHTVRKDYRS
T4 sequence (P27986 whole entry partner): as the sequence (P27986 whole entry partner) above
T2 sequence (P48736 whole entry): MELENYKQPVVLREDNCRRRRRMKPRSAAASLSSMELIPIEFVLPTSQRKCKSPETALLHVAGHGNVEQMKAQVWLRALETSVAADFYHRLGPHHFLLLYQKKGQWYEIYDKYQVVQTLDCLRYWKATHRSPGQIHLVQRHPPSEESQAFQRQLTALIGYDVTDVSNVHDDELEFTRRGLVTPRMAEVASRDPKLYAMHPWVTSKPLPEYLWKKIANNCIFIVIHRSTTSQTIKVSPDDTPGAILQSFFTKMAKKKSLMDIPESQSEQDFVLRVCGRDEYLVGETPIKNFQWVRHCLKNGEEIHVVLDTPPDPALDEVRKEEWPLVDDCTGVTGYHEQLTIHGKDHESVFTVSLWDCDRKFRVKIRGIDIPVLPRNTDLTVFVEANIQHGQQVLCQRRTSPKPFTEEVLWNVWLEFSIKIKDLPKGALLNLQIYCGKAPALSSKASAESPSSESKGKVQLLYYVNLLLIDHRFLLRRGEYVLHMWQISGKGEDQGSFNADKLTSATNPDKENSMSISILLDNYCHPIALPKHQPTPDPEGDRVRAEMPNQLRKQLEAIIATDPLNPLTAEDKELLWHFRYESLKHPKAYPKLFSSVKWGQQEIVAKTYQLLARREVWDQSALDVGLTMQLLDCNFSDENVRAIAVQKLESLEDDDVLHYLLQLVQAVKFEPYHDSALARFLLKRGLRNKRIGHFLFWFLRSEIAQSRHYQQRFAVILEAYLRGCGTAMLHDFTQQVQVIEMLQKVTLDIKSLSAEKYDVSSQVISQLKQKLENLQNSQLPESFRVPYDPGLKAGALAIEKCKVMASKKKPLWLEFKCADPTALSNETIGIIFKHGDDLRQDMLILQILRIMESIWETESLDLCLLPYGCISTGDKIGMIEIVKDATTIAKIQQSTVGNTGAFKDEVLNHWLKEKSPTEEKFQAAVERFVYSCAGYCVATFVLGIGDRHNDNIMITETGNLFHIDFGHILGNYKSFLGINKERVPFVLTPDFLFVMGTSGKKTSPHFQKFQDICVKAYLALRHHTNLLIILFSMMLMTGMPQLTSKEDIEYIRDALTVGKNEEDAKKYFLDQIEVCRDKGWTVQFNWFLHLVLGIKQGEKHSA
T1 sequence (P42336 whole entry): as the sequence (P42336 whole entry) above
T1 sequence (P27986 whole entry partner): as the sequence (P27986 whole entry partner) above

Row | SMILES | IC50 (PI3Kα (p110α/p85α)) [nM] | IC50 (PI3Kγ (p120γ)) [nM] | EC50 (PI3K) [nM] | covalent modification of PI3Kα (PI3Kα [1]) | EC50 (Phospho-Akt(Ser473) [2]) [nM] | covalent modification of PI3Kα (PI3Kα [3]) | further results
1 | C/C=C/C(=O)CCC(=O)NCC(=O)N1CCN(Cc2cc3nc(-c4cccc5[nH]ncc45)nc(N4CCOCC4)c3s2)CC1 [II-a-16, (E)-N-(2-(4-((2-(1H-indazol-4-yl)-4-morpholinothieno[3,2-d]pyrimidin-6-yl)methyl)piperazin-1-yl)-2-oxoethyl)-4-oxohept-5-enamide] | < 10 | > 1000 | 100 to 500 | completely modify |  |  | times more potent than its reversible counterpart II^R-a-16 (PI3Kα (p110α/p85α); PI3Kα HTRF assay): about 35 times
2 | C=CC(=O)Nc1ccc(CC(=O)N2CC=C(c3cc(-c4cnc(N)nc4)nc(N4CCOCC4)c3)CC2)cc1 [XII-51, N-(4-(2-(4-(2-(2-aminopyrimidin-5-yl)-6-morpholinopyridin-4-yl)-5,6-dihydropyridin-1(2H)-yl)-2-oxoethyl)phenyl)acrylamide] | 10 to 100 |  |  |  | 10 to 100 | similarly modify | 
3 | C/C=C/C(=O)CCC(=O)NCC(=O)N1CCN(Cc2cc3nc(-c4cccc(O)c4)nc(N4CCOCC4)c3s2)CC1 [II-a-37, (E)-N-(2-(4-((2-(3-hydroxyphenyl)-4-morpholinothieno[3,2-d]pyrimidin-6-yl)methyl)piperazin-1-yl)-2-oxoethyl)-4-oxohept-5-enamide] | < 10 | > 1000 | 20 to 100 | completely modify | 100 to 1000 |  | 
4 | C/C=C/C(=O)CCC(=O)N1CCN(Cc2cc3nc(-c4cnc(N)nc4)nc(N4CCOCC4)c3s2)CC1 [II-a-112, (E)-1-(4-((2-(2-aminopyrimidin-5-yl)-4-morpholinothieno[3,2-d]pyrimidin-6-yl)methyl)piperazin-1-yl)hept-5-ene-1,4-dione] | 10 to 100 |  |  |  | ≤ 10 |  | IC50 (PI3Kβ (p110β/p85α)): 100 to 1000 nM; EC50 (Phospho-Akt(Ser473) [4]): 10 to 100 nM
5 | O=C(/C=C/c1ccccc1)CCC(=O)N1CCN(Cc2cc3nc(-c4cccc5[nH]ncc45)nc(N4CCOCC4)c3s2)CC1 [II-a-116, (E)-1-(4-((2-(1H-indazol-4-yl)-4-morpholinothieno[3,2-d]pyrimidin-6-yl)methyl)piperazin-1-yl)-6-phenylhex-5-ene-1,4-dione] | 10 to 100 |  |  |  | 10 to 100 |  | IC50 (PI3Kβ (p110β/p85α)): > 1000 nM; EC50 (Phospho-Akt(Ser473) [4]): 10 to 100 nM
6 | C/C=C/C(=O)CCC(=O)N1CC=C(c2cc3nc(-c4cccc(O)c4)nc(N4CCOCC4)c3s2)CC1 [II-a-45, (E)-1-(4-(2-(3-hydroxyphenyl)-4-morpholinothieno[3,2-d]pyrimidin-6-yl)-5,6-dihydropyridin-1(2H)-yl)hept-5-ene-1,4-dione] | < 10 | 100 to 1000 | 100 to 500 | covalent modification; also recorded: complete modification | ≤ 10 |  | positive mass shift of PI3Kα (PI3Kα [1]): 563 Da
7 | C=CC(=O)Nc1ccc(CC(=O)N2CCN(c3cc(-c4cnc(N)nc4)nc(N4CCOCC4)c3)CC2)cc1 [XII-54] | 100 to 1000 |  |  |  | 100 to 1000 | covalent modification | mass shift of PI3Kα (PI3Kα [3]): 542 Da; mass shift of PI3Kα, per cent in brackets (PI3Kα [3]): 103%
8 | CC(C)=CC(=O)CCC(=O)N1CC2(CCN(c3cc(-c4cnc(N)nc4)nc(N4CCOCC4)c3)CC2)C1 [XII-42, 1-(7-(2-(2-aminopyrimidin-5-yl)-6-morpholinopyridin-4-yl)-2,7-diazaspiro[3.5]nonan-2-yl)-6-methylhept-5-ene-1,4-dione] | > 1000 |  |  |  | 100 to 1000 | similarly modify | 
9 | CC(C)=CC(=O)CCCC(=O)N1CC=C(c2cc3nc(-c4cnc(N)nc4)nc(C4=CCOCC4)c3s2)CC1 [II-a-169] | 10 to 100 | 100 to 1000 |  |  |  |  | IC50 (PI3Kβ (p110β/p85α)): > 1000 nM
10 | C=CC(=O)Nc1ccc(C(=O)N2CCC3(CC2)CN(c2cc(-c4cnc(N)nc4)nc(N4CCOCC4)c2)C3)cc1 [XII-52, N-(4-(2-(2-(2-aminopyrimidin-5-yl)-6-morpholinopyridin-4-yl)-2,7-diazaspiro[3.5]nonane-7-carbonyl)phenyl)acrylamide] | 100 to 1000 |  |  |  | 100 to 1000 | similarly modify | 
11 | C=C(C)C(=O)CCC(=O)NCC(=O)N1CCN(Cc2cc3nc(-c4cccc5[nH]ncc45)nc(N4CCOCC4)c3s2)CC1 [II-a-33, N-(2-(4-((2-(1H-indazol-4-yl)-4-morpholinothieno[3,2-d]pyrimidin-6-yl)methyl)piperazin-1-yl)-2-oxoethyl)-5-methyl-4-oxohex-5-enamide] | 10 to 100 | > 1000 | 20 to 100 | completely modify |  |  | 
12 | CC(C)/C=C/C(=O)CCC(=O)N1CCN(Cc2cc3nc(-c4cccc5[nH]ncc45)nc(N4CCOCC4)c3s2)CC1 [II-a-54, (E)-1-(4-((2-(1H-indazol-4-yl)-4-morpholinothieno[3,2-d]pyrimidin-6-yl)methyl)piperazin-1-yl)-7-methyloct-5-ene-1,4-dione] | 10 to 100 | > 1000 |  | completely modify |  |  | 
